Source: the kinase profiling compilation of Christmann-Franck et al. (2016)

Columns and labels:
Experiment in all cases: KINOMEscan competition binding
Details in all cases: compound 10.0 µM
STK33 (human) = STK33 (human) (UniProt Q9BYT3)
ACVR2B (human) = ACVR2B (human) (UniProt Q13705)
FGFR2 (human) = FGFR2 (human) (UniProt P21802)
NTRK2 (human) = NTRK2 (human) (UniProt Q16620)
TSSK1B (human) = TSSK1B (human) (UniProt Q9BXA7)
PHKG2 (human) = PHKG2 (human) (UniProt P15735)
DCLK3 (human) = DCLK3 (human) (UniProt Q9C098)
IKBKE (human) = IKBKE (human) (UniProt Q14164)
CDK15 (human) = CDK15 (human) (UniProt Q96Q40)
BMPR1A (human) = BMPR1A (human) (UniProt P36894)
GSK3B (human) = GSK3B (human) (UniProt P49841)
BTK (human) = BTK (human) (UniProt Q06187)
CDK8 (human) = CDK8 (human) (UniProt P49336)
MAP3K7 (human) = MAP3K7 (human) (UniProt O43318)
CLK4 (human) = CLK4 (human) (UniProt Q9HAZ1)
[1] = biological target: JAK1 JH2 pseudokinase (human) (UniProt P23458)
RPS6KA4 KD1 (human) = RPS6KA4 KD1 (human) (UniProt O75676)
RIPK1 (human) = RIPK1 (human) (UniProt Q13546)
MYLK4 (human) = MYLK4 (human) (UniProt Q86YV6)
INSRR (human) = INSRR (human) (UniProt P14616)
IRAK3 (human) = IRAK3 (human) (UniProt Q9Y616)
ANKK1 (human) = ANKK1 (human) (UniProt Q8NFD2)
TNK1 (human) = TNK1 (human) (UniProt Q13470)
FES (human) = FES (human) (UniProt P07332)
ABL2 (human) = ABL2 (human) (UniProt P42684)
CaMK1 (human) = CaMK1 (human) (UniProt Q14012)
PRKG1 (human) = PRKG1 (human) (UniProt Q13976)
[2] = tested on: EGFR (human), P00533 [L858R]
SLK (human) = SLK (human) (UniProt Q9H2G2)
TESK1 (human) = TESK1 (human) (UniProt Q15569)
TAOK1 (human) = TAOK1 (human) (UniProt Q7L7X3)
ERBB2 (human) = ERBB2 (human) (UniProt P04626)
TNIK (human) = TNIK (human) (UniProt Q9UKE5)
MAP3K11 (human) = MAP3K11 (human) (UniProt Q16584)
Chain of MAP3K11 (human) (Q16584 whole entry, looked up): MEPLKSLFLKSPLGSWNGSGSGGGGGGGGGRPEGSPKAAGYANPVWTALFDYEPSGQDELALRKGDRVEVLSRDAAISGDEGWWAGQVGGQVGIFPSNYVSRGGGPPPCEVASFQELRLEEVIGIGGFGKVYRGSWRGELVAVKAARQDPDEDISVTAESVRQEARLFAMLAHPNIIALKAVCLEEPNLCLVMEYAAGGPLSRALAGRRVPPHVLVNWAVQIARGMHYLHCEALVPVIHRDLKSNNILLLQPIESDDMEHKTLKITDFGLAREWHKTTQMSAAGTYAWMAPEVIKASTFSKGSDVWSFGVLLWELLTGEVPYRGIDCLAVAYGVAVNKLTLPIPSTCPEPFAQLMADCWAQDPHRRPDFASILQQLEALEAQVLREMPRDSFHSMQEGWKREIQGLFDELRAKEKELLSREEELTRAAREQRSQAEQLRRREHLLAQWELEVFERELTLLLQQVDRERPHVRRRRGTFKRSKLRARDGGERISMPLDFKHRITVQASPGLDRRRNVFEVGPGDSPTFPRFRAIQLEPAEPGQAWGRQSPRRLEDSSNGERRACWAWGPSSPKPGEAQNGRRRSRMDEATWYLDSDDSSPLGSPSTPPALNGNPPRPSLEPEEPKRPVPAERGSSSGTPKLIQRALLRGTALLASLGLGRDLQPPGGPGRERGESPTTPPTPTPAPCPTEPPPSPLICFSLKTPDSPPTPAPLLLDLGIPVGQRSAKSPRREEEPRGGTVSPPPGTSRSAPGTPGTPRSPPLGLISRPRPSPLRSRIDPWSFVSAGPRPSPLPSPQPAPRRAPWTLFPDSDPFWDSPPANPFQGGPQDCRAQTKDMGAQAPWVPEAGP

Chain of GSK3B (human) (P49841 whole entry, looked up): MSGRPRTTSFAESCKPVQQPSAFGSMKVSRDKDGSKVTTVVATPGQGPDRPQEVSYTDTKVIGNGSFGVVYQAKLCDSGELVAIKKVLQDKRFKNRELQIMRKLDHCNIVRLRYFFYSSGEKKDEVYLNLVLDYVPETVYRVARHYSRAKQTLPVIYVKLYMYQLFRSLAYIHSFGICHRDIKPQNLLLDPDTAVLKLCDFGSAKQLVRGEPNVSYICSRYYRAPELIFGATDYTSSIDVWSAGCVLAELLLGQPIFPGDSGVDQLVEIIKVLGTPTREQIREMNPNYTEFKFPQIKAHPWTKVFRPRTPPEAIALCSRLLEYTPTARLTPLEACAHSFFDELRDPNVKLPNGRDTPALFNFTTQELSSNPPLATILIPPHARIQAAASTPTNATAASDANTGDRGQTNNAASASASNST
Chain of PHKG2 (human) (P15735 whole entry, looked up): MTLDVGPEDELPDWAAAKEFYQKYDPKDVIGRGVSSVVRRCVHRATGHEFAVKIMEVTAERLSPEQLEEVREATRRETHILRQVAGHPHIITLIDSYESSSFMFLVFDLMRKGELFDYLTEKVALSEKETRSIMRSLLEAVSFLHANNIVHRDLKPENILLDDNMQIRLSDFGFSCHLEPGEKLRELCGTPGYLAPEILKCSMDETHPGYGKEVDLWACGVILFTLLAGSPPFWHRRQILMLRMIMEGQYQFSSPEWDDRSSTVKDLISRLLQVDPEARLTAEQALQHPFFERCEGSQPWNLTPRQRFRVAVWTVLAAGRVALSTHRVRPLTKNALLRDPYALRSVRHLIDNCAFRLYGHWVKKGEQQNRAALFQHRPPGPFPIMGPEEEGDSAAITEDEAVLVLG
Chain of CDK8 (human) (P49336 whole entry, looked up): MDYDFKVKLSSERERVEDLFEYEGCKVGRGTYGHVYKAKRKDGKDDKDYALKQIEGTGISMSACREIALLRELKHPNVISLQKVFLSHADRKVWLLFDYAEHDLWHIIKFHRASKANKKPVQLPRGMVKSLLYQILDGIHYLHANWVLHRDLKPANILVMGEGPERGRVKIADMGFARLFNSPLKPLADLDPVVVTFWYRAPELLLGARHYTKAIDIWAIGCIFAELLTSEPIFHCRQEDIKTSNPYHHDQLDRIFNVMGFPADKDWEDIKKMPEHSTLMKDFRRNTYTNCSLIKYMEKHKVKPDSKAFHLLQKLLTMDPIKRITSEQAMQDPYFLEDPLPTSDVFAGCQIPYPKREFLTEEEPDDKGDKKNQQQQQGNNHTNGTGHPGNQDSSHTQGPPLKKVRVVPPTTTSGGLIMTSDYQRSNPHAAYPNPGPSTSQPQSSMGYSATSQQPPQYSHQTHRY
Chain of STK33 (human) (Q9BYT3 whole entry, looked up): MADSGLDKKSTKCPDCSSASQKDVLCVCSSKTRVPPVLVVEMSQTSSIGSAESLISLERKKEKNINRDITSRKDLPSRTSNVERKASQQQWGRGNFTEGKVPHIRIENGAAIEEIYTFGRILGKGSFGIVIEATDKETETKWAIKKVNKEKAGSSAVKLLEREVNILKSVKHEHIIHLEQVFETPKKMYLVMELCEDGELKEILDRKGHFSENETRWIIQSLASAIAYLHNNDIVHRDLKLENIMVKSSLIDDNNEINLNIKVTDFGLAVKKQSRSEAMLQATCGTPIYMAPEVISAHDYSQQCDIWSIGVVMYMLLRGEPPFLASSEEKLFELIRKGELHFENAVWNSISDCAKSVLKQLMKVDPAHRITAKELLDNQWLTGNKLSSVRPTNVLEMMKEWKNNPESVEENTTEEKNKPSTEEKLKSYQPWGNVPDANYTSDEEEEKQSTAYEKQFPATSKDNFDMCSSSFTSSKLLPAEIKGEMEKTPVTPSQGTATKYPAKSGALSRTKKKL
Chain of RIPK1 (human) (Q13546 whole entry, looked up): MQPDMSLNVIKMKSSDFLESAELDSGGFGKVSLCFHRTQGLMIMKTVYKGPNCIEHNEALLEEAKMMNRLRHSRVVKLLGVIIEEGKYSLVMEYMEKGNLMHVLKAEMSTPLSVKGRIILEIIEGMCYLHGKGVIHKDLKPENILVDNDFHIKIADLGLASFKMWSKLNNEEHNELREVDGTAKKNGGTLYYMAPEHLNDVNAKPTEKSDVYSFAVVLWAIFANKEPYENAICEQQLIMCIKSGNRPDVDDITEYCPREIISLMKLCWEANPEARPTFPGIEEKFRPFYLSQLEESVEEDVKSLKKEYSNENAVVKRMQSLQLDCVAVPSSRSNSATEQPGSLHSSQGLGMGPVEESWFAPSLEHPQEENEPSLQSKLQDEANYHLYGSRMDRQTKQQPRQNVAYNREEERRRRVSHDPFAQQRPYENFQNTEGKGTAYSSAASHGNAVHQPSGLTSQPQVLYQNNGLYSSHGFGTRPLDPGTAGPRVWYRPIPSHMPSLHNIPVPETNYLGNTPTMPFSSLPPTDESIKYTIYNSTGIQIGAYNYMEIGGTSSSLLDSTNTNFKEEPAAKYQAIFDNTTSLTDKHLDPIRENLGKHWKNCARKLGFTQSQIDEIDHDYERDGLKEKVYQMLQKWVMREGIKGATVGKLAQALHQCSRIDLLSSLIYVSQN
Chain of TESK1 (human) (Q15569 whole entry, looked up): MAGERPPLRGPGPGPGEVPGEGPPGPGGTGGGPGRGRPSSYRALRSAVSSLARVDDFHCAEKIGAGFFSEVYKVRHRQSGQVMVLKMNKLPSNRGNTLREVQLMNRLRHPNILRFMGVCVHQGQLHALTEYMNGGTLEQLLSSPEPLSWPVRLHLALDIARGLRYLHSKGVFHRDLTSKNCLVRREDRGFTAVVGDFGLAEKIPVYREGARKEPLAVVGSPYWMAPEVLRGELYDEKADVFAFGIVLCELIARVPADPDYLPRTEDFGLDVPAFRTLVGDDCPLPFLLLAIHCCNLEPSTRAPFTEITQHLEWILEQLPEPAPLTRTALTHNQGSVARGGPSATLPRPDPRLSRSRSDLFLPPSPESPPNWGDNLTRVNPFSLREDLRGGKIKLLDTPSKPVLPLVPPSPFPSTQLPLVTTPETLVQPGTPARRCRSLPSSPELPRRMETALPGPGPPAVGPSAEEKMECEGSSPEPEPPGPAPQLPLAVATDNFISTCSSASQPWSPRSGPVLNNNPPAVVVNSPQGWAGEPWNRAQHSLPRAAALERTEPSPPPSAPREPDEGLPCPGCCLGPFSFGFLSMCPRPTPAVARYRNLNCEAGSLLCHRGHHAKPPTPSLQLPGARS
Chain of TSSK1B (human) (Q9BXA7 whole entry, looked up): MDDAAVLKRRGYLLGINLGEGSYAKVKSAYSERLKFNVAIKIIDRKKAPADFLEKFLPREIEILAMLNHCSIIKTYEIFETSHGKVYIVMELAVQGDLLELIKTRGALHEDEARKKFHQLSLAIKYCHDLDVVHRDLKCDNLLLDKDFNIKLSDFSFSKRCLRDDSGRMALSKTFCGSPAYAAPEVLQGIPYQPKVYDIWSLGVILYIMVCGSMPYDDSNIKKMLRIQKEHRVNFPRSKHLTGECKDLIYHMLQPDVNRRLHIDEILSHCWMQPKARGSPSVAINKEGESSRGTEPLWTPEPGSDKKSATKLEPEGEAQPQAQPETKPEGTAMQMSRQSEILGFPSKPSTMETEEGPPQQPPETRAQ
Chain of DCLK3 (human) (Q9C098 whole entry, looked up): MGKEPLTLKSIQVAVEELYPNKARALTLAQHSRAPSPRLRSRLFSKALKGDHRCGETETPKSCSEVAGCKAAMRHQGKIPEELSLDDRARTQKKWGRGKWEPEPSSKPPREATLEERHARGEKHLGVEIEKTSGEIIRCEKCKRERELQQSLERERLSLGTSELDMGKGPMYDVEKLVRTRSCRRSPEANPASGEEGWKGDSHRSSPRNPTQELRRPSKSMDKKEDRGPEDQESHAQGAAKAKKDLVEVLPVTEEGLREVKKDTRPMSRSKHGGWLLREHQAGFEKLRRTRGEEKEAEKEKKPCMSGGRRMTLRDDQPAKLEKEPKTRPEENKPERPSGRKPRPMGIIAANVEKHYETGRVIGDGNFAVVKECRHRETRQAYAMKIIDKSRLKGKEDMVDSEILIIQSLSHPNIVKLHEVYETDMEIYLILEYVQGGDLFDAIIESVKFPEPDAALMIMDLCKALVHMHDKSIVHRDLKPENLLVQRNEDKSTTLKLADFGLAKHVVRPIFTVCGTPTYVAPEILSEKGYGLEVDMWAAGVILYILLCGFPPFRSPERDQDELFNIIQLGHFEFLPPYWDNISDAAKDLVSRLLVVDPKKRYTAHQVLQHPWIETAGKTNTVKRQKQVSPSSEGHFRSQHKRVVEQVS

SMILES	kinase still bound, per cent of control (STK33 (human)) [%]	kinase still bound, per cent of control (ACVR2B (human)) [%]	kinase still bound, per cent of control (FGFR2 (human)) [%]	kinase still bound, per cent of control (NTRK2 (human)) [%]	kinase still bound, per cent of control (TSSK1B (human)) [%]	kinase still bound, per cent of control (PHKG2 (human)) [%]	kinase still bound, per cent of control (DCLK3 (human)) [%]	kinase still bound, per cent of control (IKBKE (human)) [%]	kinase still bound, per cent of control (GSK3B (human)) [%]	kinase still bound, per cent of control (BTK (human)) [%]	kinase still bound, per cent of control (CDK8 (human)) [%]	kinase still bound, per cent of control (CLK4 (human)) [%]	kinase still bound, per cent of control [1] [%]	kinase still bound, per cent of control (RPS6KA4 KD1 (human)) [%]	kinase still bound, per cent of control (RIPK1 (human)) [%]	kinase still bound, per cent of control (MYLK4 (human)) [%]	kinase still bound, per cent of control (INSRR (human)) [%]	kinase still bound, per cent of control (IRAK3 (human)) [%]	kinase still bound, per cent of control (ANKK1 (human)) [%]	kinase still bound, per cent of control (TNK1 (human)) [%]	other results
COc1cc(C)c(Sc2cnc(NC(=O)c3ccc(CNC(C)C(C)C)cc3)s2)cc1C(=O)N1CCN(C(C)=O)CC1 (stereo not drawn)	7	100	100	23	100	11	4.2	100	100	2.6	100	33	100	100	100	100	0.35	100	100	100	kinase still bound, per cent of control (CDK15 (human)): 100%; kinase still bound, per cent of control (BMPR1A (human)): 100%; kinase still bound, per cent of control (MAP3K7 (human)): 100%; kinase still bound, per cent of control (FES (human)): 100%; kinase still bound, per cent of control (ABL2 (human)): 100%; kinase still bound, per cent of control (CaMK1 (human)): 100%; kinase still bound, per cent of control (PRKG1 (human)): 100%; kinase still bound, per cent of control [2]: 100%; kinase still bound, per cent of control (SLK (human)): 31%; kinase still bound, per cent of control (TESK1 (human)): 100%; kinase still bound, per cent of control (TAOK1 (human)): 16%; kinase still bound, per cent of control (ERBB2 (human)): 100%; kinase still bound, per cent of control (TNIK (human)): 100%; kinase still bound, per cent of control (MAP3K11 (human)): 100%
COc1ccc(N(C(=O)Oc2cc(C(=O)Nc3cccc(C(F)(F)F)c3)ccc2C)c2ccnc(Nc3ccc(N4CCN(C)CC4)cc3)n2)c(OC)c1	100	100	3.4	24	100	100	100	100	100	1.4	100	100	100	100	100	100	100	100	100	1.6	kinase still bound, per cent of control (FES (human)): 0.85%; kinase still bound, per cent of control (ABL2 (human)): 0.35%; kinase still bound, per cent of control (CaMK1 (human)): 100%; kinase still bound, per cent of control (PRKG1 (human)): 100%; kinase still bound, per cent of control [2]: 2.4%; kinase still bound, per cent of control (SLK (human)): 0.15%; kinase still bound, per cent of control (TESK1 (human)): 3.8%; kinase still bound, per cent of control (ERBB2 (human)): 100%; kinase still bound, per cent of control (TNIK (human)): 12%; kinase still bound, per cent of control (MAP3K11 (human)): 100%
COc1cc(N2CCC(C(N)=O)CC2)ccc1Nc1nc(N)c(Cl)c(Nc2ccccc2S(=O)(=O)C(C)C)n1	4.5	100	100	100	100	13	100	100	100	26	100	5.5	100	100	100	100	1.2	29	100	3.8	kinase still bound, per cent of control (CDK15 (human)): 100%; kinase still bound, per cent of control (BMPR1A (human)): 100%; kinase still bound, per cent of control (MAP3K7 (human)): 100%; kinase still bound, per cent of control (FES (human)): 2.3%; kinase still bound, per cent of control (ABL2 (human)): 100%; kinase still bound, per cent of control (CaMK1 (human)): 100%; kinase still bound, per cent of control (PRKG1 (human)): 100%; kinase still bound, per cent of control [2]: 0.3%; kinase still bound, per cent of control (SLK (human)): 2.6%; kinase still bound, per cent of control (TESK1 (human)): 100%; kinase still bound, per cent of control (TAOK1 (human)): 100%; kinase still bound, per cent of control (ERBB2 (human)): 18%; kinase still bound, per cent of control (TNIK (human)): 100%; kinase still bound, per cent of control (MAP3K11 (human)): 100%
